Assay results: patent US20050181988A1, “Echinocandin cyclic peptide derivatives” (priority 2002, published 2005)
Where two headings read alike, the source gives them in different places.

System: Candida albicans FP-633
Experiment: In vitro antimicrobial activity: MICs in mouse serum by the microdilution method
Assay type: cell-based
Procedure: In vitro antimicrobial activity of the object compound of Example 23, 46, 58 and 63 disclosed later was determined by MICS in mouse serum as described below.
The MICs in mouse serum were determined by the microdilution method using ICR mouse serum buffered with 20 mM HEPES buffer (pH 7.3) as a test medium. Inoculum suspension of 10^6 cells/ml were prepared by a hemocytometric procedure and diluted to obtain an inoculum size of approximately 1.0×10^3 cells/ml. Microplates were incubated at 37° C. for 24 hours in 5% CO2. The MICs was defined as the lowest concentrations at which no visible growth was observed.

MIC (FP633, microdilution in ICR mouse serum buffered with 20 mM HEPES (pH 7.3), inoculum approx. 1.0×10^3 cells/ml, 37° C., 24 hours, 5% CO2, lowest concentration with no visible growth, read-out: MIC (μg/ml), Candida albicans FP-633) [µg/mL]	Structure (SMILES)	MIC (FP633, 24 h, pH 7.3, read-out: MIC (μg/ml), Candida albicans FP-633) [µg/mL]
–	CCOCCOc1ccc(-c2ccc(-c3nnc(-c4ccc(C(=O)N[C@H]5C[C@@H](O)CNC(=O)[C@@H]6[C@@H](O)[C@@H](C)CN6C(=O)[C@H]([C@H](O)CCN)NC(=O)[C@H]([C@H](O)Cc6ccc(O)c(OCCCN)c6)NC(=O)[C@@H]6C[C@@H](O)CN6C(=O)[C@H]([C@@H](C)O)NC5=O)cc4)s3)cc2)cc1 [Example 46]	< 0.2
< 0.2	C[C@@H](O)[C@@H]1NC(=O)[C@@H](NC(=O)c2ccc(-c3nnc(-c4ccc(N5CCN([C@H]6CC[C@@H](C)CC6)CC5)nc4)s3)cc2)C[C@@H](O)CNC(=O)[C@@H]2[C@@H](O)[C@@H](C)CN2C(=O)[C@H]([C@H](O)CCN)NC(=O)[C@H]([C@H](O)Cc2ccc(O)c(OCCN)c2)NC(=O)[C@@H]2C[C@@H](O)CN2C1=O [Example 58]	–
